Literature values, collected in patent US20210347751A1, “METHOD FOR EFFICIENT EXTRACTION OF PLANT ANTHOCYANIDIN” (priority 2018, published 2021).
Where two headings read alike, the source gives them in different places.

How the values were obtained:
[1] = in vivo

| Compound | Water solubility (10° C.) | Water solubility (20° C.) | Water solubility (30° C.) | Water solubility (40° C.) | Water solubility (60° C.) | Water solubility (70° C.) | Water solubility (80° C.) | Water solubility (90° C.) | Water solubility (100° C.) | bioavailability in the human body [1] |
| --- | --- | --- | --- | --- | --- | --- | --- | --- | --- | --- |
| [Cl-].[K+] [potassium chloride] | 31.2 gram/100 g of water | 34.2 gram/100 g of water | 37.2 gram/100 g of water | 40.1 gram/100 g of water | 45.8 gram/100 g of water | 48.8 gram/100 g of water | 51.3 gram/100 g of water | 53.9 gram/100 g of water | 56.3 gram/100 g of water | – |
| Anthocyanins | – | – | – | – | – | – | – | – | – | almost zero |
